Legend:
[1] = biological target: T1, Tyrosinase (Agaricus bisporus, UniProt O42713); assay: Inhibition of mushroom tyrosinase using L-tyrosine as substrate pretreated for 5 mins followed by substrate addition measured over 30 mins by spectrophotometric method
T1 sequence (O42713 whole entry): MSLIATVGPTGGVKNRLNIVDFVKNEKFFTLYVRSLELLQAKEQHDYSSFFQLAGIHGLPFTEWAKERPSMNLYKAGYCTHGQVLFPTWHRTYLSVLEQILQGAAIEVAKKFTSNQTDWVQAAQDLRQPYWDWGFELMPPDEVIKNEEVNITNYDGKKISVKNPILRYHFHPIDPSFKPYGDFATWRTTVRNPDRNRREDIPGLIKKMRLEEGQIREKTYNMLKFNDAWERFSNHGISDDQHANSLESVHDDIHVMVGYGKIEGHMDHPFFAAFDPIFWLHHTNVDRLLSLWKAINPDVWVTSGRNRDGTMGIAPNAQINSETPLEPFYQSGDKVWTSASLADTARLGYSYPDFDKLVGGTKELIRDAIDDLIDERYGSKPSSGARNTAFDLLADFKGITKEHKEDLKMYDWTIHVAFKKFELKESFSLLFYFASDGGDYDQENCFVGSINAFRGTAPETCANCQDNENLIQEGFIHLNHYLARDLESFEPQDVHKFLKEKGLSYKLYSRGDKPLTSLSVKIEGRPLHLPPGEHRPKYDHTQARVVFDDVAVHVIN

[2] = biological target: T1, Tyrosinase; assay: Inhibition of mushroom tyrosinase
[3] = biological target: T1, Tyrosinase; assay: Inhibition of mushroom tyrosinase using L-DOPA as substrate measured at 1 min interval by spectrophotometric method

SMILES | IC50 [1] [µM] | IC50 [3] [µM] | IC50 [2] [µM]
OC[C@H]1O[C@@H](Oc2c(O)cc(O)cc2O)[C@H](O)[C@@H](O)[C@@H]1O | 410 | – | –
O=c1c(O)c(-c2ccc(O)c(O)c2)oc2cc(O)cc(O)c12 [QUERCETIN] | 240 | – | –
C[C@@H]1O[C@@H](Oc2c(-c3ccc(O)c(O)c3)oc3cc(O)cc(O)c3c2=O)[C@H](O)[C@H](O)[C@H]1O [QUERCITRIN] | 150 | – | 100
C[C@@H]1O[C@@H](OC[C@H]2O[C@@H](Oc3c(-c4ccc(O)c(O)c4)oc4cc(O)cc(O)c4c3=O)[C@H](O)[C@@H](O)[C@@H]2O)[C@H](O)[C@H](O)[C@H]1O [RUTIN] | 130 | 70 | –

Further lines, with some results ahead:

IC50 [1] [µM] | IC50 [3] [µM] | SMILES | IC50 [2] [µM]
310 | – | COc1c(O)cc(-c2oc3cc(O)cc(O)c3c(=O)c2O[C@@H]2O[C@@H](C)[C@H](O)[C@@H](O)[C@H]2O)cc1O | –
520 | – | CC(=O)O[C@@H]1[C@@H](O)[C@@H](OC(C)=O)[C@H](Oc2c(-c3cc(O)c(O)c(O)c3)oc3cc(O)cc(O)c3c2=O)O[C@H]1C | –
280 | – | CC(=O)O[C@@H]1[C@@H](O)[C@@H](O)[C@H](Oc2c(-c3cc(O)c(O)c(O)c3)oc3cc(O)cc(O)c3c2=O)O[C@H]1C | –
180 | – | CC(=O)O[C@@H]1[C@@H](OC(C)=O)[C@@H](O)[C@H](Oc2c(-c3cc(O)c(O)c(O)c3)oc3cc(O)cc(O)c3c2=O)O[C@H]1C | –
190 | – | COc1c(O)cc(-c2oc3cc(O)cc(O)c3c(=O)c2O[C@@H]2O[C@@H](C)[C@H](OC(C)=O)[C@@H](O)[C@H]2O)cc1O | –
120 | – | C[C@@H]1O[C@@H](Oc2c(-c3cc(O)c(O)c(O)c3)oc3cc(O)cc(O)c3c2=O)[C@H](O)[C@H](O)[C@H]1O | 320

— ChEMBL document CHEMBL4130610, “Isolation of Flavonoids and Flavonoid Glycosides from Myrsine africana and Their Inhibitory Activities against Mushroom Tyrosinase” (J Nat Prod, 2018)
